Data published in US7238813B2, “Chemical compounds” (Smithkline Beecham Corporation, priority 2000, dated 2007).
Counter-ions that a name gives are not always drawn.

How the values were obtained:
[1] = target: T1, GST-TIE2 (intracellular domains of human TIE2) (Homo sapiens, UniProt Q02763); test: TIE-2 enzyme assay (TIE2-E), LANCE method; assay type: biochemical; details: 80 uM ATP
T1 construct: made in house
Procedure, shortened: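 Baculovirus GST-TIE2 (human intracellular domain, aa 762–1104) preactivated 30 min at RT with 2 mM ATP, then reacted 30 min at RT with 1 μM D1-15 peptide, 80 uM ATP, 10 mM MgCl2, pH 7.4, 2.4% DMSO. EDTA-stopped; LANCE Eu-anti-pTyr/streptavidin-APC read-out. IC50 by nonlinear regression, reported as pIC50.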

[2] = target: T2, TIE2 intracellular domain/c-fms extracellular domain (TIE2/c-fms) chimeric protein expressing mouse 3T3 cells (Homo sapiens, UniProt Q02763); test: TIE-2 autophosphorylation assay (TIE2-C), ELISA; assay type: cell-based; details: TIE2/c-fms 3T3 cells, MCSF activation
T2 construct: a TIE2 intracellular domain/c-fms extracellular domain (TIE2/c-fms) chimeric protein; expressed in transfected cells; host or cells: mouse 3T3 cells
Procedure, shortened: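 Mouse 3T3 cells expressing TIE2 intracellular/c-fms extracellular chimera treated with compound for 1 hr in serum-free DMEM (0.1% DMSO), then stimulated with MCSF. Lysates captured on anti-c-fms plates overnight at 4 °C; phosphotyrosine detected by biotin-PT66/HRP-streptavidin, OD450. IC50 by nonlinear regression, reported as pIC50.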

[3] = target: T3, GST-VEGFR2 (Homo sapiens, UniProt P35968); test: VEGF-R2 enzyme assay (VEGF-E), LANCE method; assay type: biochemical; details: 75 μM ATP
T3 construct: GST-VEGFR2, baculovirus expressed recombinant constructs of the intracellular domains of human TIE2 tagged by GST; made in house

[4] = tested on: Human umbilical cord endothelial cells (HUVEC); test: VEGF-driven cellular proliferation assay: BrdU incorporation assay (VEGF-C); assay type: cell-based; design: key to VEGF-C: + = pIC50 of 5.0–6.0; ++ = pIC50 of 6.0–7.0; +++ = pIC50 of > 7.0; − = a negative or inconclusive result; details: for IC50: Homo sapiens
Procedure, shortened: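 HUVEC (≤6 passages) were plated at 5000 cells/well and exposed to compound 30 min in serum-free M199 containing 0.6% DMSO. Medium with 20 ng/ml VEGF was then added for 24 h, followed by a 24 h pulse with 10 μM BrdU and ELISA read at 450 nm. IC50 from nonlinear regression of percent inhibition was expressed as pIC50.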

T1 sequence (Q02763 762-1104): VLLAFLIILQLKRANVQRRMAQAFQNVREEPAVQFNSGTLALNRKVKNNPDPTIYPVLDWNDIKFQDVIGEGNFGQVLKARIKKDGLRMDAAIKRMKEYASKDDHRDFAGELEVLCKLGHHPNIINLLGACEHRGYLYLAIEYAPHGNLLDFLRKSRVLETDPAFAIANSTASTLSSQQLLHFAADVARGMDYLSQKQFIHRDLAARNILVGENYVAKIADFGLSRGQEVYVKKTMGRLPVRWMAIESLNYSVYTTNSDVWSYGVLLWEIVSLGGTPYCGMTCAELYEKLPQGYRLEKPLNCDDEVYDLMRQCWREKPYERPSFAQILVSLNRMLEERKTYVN
T2 sequence (Q02763 770-1124 limits assumed, change not shown): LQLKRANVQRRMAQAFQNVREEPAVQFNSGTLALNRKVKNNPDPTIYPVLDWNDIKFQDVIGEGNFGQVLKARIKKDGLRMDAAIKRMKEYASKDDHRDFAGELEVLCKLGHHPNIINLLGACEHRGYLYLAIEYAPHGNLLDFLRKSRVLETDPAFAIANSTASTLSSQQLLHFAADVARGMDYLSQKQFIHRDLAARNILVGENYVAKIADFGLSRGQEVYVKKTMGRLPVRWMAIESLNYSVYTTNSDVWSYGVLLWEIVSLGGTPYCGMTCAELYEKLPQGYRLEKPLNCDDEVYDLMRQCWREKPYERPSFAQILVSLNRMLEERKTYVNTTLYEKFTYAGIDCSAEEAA
T3 sequence (P35968 786-1356 limits assumed): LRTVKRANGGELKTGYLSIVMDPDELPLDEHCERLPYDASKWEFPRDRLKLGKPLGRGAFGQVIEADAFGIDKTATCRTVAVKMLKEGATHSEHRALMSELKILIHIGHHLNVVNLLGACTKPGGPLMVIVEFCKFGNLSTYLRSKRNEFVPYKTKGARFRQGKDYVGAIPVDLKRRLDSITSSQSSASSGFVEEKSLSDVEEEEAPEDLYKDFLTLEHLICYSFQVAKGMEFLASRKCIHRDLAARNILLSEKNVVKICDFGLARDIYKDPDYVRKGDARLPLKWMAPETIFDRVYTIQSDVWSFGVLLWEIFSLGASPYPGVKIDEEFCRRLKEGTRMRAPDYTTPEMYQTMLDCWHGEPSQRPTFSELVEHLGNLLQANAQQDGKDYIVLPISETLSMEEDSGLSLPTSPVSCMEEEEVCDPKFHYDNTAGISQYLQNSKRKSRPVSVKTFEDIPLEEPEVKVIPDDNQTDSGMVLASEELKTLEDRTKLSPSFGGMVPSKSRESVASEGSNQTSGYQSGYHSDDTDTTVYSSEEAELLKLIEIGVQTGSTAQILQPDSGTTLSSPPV

Compound | IC50 [1] | IC50 [2] | IC50 [3] | IC50 [4] | VEGF-C [4]
COC(=O)Nc1nc2ccc(Oc3ccc(NC(=O)Nc4cc(C(F)(F)F)ccc4Cl)cc3)nc2[nH]1 [Example 72, Methyl N-(5-(4-((2-chloro-5-(trifluoromethyl)phenyl)aminocarbonylamino)phenoxy)-3,4-diaza-1H-indole-2-yl)carbamate dihydrochloride] | < 100 nM | < 100 nM | < 100 nM | 1000 to 10000 nM | 
O=C(Cn1nnc(N2CCCC2)n1)Nc1nc2cc(Oc3ccc(NC(=O)Nc4cc(C(F)(F)F)ccc4F)cc3)ccc2[nH]1 [Example 96, N-(5-(4-((2-Fluoro-5-(trifluoromethyl)phenyl)aminocarbonylamino)phenoxy)-1H-benzimidazol-2-yl)(5-(1-pyrrolidino)tetrazol-2-yl)acetamide] | < 100 nM | < 100 nM | < 100 nM | 100 to 1000 nM | 
COC(=O)Nc1nc2ccc(Oc3ccc(NC(=O)Nc4cc(C(F)(F)F)ccc4F)cc3)cc2s1 [Example 64, Methyl N-(6-(4-((6-fluoro-3-(trifluoromethyl)phenyl)aminocarbonylamino)phenoxy)-benzthiazol-2-yl)carbamate] | < 100 nM | < 100 nM | < 100 nM | < 100 nM | 
Cc1ccc(S(=O)(=O)n2c(N)nc3ccc(Oc4ccc(NC(=O)Nc5cc(C(F)(F)F)ccc5F)cc4)cc32)cc1 [Example 24, 6-(4-((2-Fluoro-5-(trifluoromethyl)phenyl)aminocarbonylamino)phenoxy)-1-(4-(methyl)phenylsulfonyl)-1H-benzimidazol-2-ylamine] | < 100 nM | 100 to 1000 nM | < 100 nM |  | −
COC(=O)Nc1nc2cc(Oc3ccc(NC(=O)Nc4cc(C(F)(F)F)ccc4Cl)cc3)ccc2[nH]1 [Example 43] | < 100 nM | < 100 nM | < 100 nM | 1000 to 10000 nM | 
COC(=O)Nc1nc2cc(Oc3ccc(NC(=O)Nc4cc(C)ccc4F)cc3)ccc2[nH]1.Cl [Example 55, Methyl N-(5-(4-((2-fluoro-5-methylphenyl)aminocarbonylamino)phenoxy)-1H-benzimidazol-2-yl)carbamate hydrochloride] | < 100 nM | < 100 nM | < 100 nM |  | −
COC(=O)Nc1nc2ccc(Sc3ccc(NC(=O)Nc4cccc(C(F)(F)F)c4)cc3)cc2[nH]1 [Example 2, Methyl N-(5-(4-((3-(trifluoromethyl)phenyl)aminocarbonylamino)phenylthio)-1H-benzimidazol-2-yl)carbamate] | < 100 nM | < 100 nM | < 100 nM | 1000 to 10000 nM | 
COC(=O)Nc1nc2ccc(Sc3ccc(NC(=O)Nc4cc(OC)cc(OC)c4)cc3)cc2[nH]1 [Example 5, Methyl N-(5-(4-((3,5-dimethoxyphenyl)aminocarbonylamino)phenylthio)-1H-benzimidazol-2-yl)carbamate] | 100 to 1000 nM | < 100 nM | 1000 to 10000 nM |  | −
O=C(CCc1cccnc1)Nc1nc2cc(Oc3ccc(NC(=O)Nc4cc(C(F)(F)F)ccc4F)cc3)ccc2[nH]1 [Example 88, N-(5-(4-((2-Fluoro-5-(trifluoromethyl)phenyl)aminocarbonylamino)phenoxy)-1H-benzimidazol-2-yl)-3-(pyridine-3-yl)propionamide] | < 100 nM | < 100 nM | < 100 nM | < 100 nM | 
O=C(Nc1ccc(Oc2ccc3[nH]c(NC(=O)C4CCCO4)nc3c2)cc1)Nc1cc(C(F)(F)F)ccc1F (centres unmarked) [Example 94] | < 100 nM | < 100 nM | < 100 nM | 1000 to 10000 nM | 
COC(=O)Nc1nc2ccc(Sc3ccc(NC(=O)Nc4cccc(Br)c4)cc3)cc2[nH]1 [Example 4, Methyl N-(5-(4-((3-bromophenyl)aminocarbonylamino)phenylthio)-1H-benzimidazol-2-yl)carbamate] | < 100 nM | 1000 to 10000 nM | 100 to 1000 nM |  | −
COCC(=O)Nc1nc2cc(Oc3ccc(NC(=O)Nc4cc(C(F)(F)F)ccc4F)cc3)ccc2[nH]1 [Example 31, N-(5-(4-((2-Fluoro-5-(trifluoromethyl)phenyl)aminocarbonylamino)phenoxy)-1H-benzimidazol-2-yl)-2-methoxyacetamide] | < 100 nM | < 100 nM | < 100 nM | < 100 nM | 
COC(=O)Nc1nc2cc(Oc3ccc(NC(=O)Nc4cc(OC)ccc4OC)cc3)ccc2[nH]1 [Example 42, Methyl N-(5-(4-((2,5-dimethoxyphenyl)aminocarbonylamino)phenoxy)-1H-benzimidazol-2-yl)carbamate] | < 100 nM | < 100 nM | < 100 nM | 100 to 1000 nM | 
COC(=O)Nc1nc2nc(Oc3ccc(NC(=O)Nc4cc(C(F)(F)F)ccc4F)cc3)ccc2[nH]1 [Example 69, dihydrochloride] | < 100 nM | < 100 nM | < 100 nM | 100 to 1000 nM | 
COC(=O)Nc1nc2cc(Oc3ccc(NC(=O)Nc4cc(F)cc(C(F)(F)F)c4)cc3)ccc2[nH]1 [Example 50, Methyl N-(5-(4-((3-fluoro-5-(trifluoromethyl)phenyl)aminocarbonylamino)phenoxy)-1H-benzimidazol-2-yl)carbamate] | < 100 nM | < 100 nM | < 100 nM | 100 to 1000 nM | 
COC(=O)Nc1nc2cc(Oc3ccc(NC(=O)Nc4cc([N+](=O)[O-])ccc4F)cc3)ccc2[nH]1 [Example 46, Methyl N-(5-(4-((2-fluoro-5-nitrophenyl)aminocarbonylamino)phenoxy)-1H-benzimidazol-2-yl)carbamate] | < 100 nM | < 100 nM | < 100 nM |  | −
COC(=O)Nc1nc2ccc(Oc3ccc(NC(=O)Nc4cc(C(F)(F)F)ccc4F)cc3)cc2n1CCN1CCOCC1 [Example 71, Methyl N-(6-(4-((2-fluoro-5-(trifluoromethyl)phenyl)aminocarbonylamino)phenoxy)-1-(2-(4-morpholino)ethyl)-1H-benzimidazol-2-yl)carbamate] | < 100 nM | 100 to 1000 nM | < 100 nM | 1000 to 10000 nM | 
COC(=O)Nc1nc2ccc(Oc3ccc(NC(=O)Nc4cc(C(F)(F)F)ccc4F)cc3)cc2o1 [Example 115, Methyl N-(6-(4-((2-fluoro-5-(trifluoromethyl)phenyl)aminocarbonylamino)phenoxy)benzoxazol-2-yl)carbamate] | < 100 nM | < 100 nM | < 100 nM | < 100 nM | 
O=C(Nc1ccc(Oc2ccc3[nH]c(NC(=O)C4CCCC4)nc3c2)cc1)Nc1cc(C(F)(F)F)ccc1F [Example 26, N-(5-(4-((2-Fluoro-5-(trifluoromethyl)phenyl)aminocarbonylamino)phenoxy)-1H-benzimidazol-2-yl)cyclopentamide] | < 100 nM | 100 to 1000 nM | < 100 nM | 100 to 1000 nM | 
COC(=O)Nc1nc2cc([S+]([O-])c3ccc(NC(=O)Nc4cc(C(F)(F)F)ccc4F)cc3)ccc2[nH]1 (centres unmarked) [Example 13, Methyl N-(5-(4-((2-fluoro-5-(trifluoromethyl)phenyl)aminocarbonylamino)phenylsulfinyl)-1H-benzimidazol-2-yl)carbamate] | < 100 nM | 100 to 1000 nM | 100 to 1000 nM |  | −
CC(C)(C)OC(=O)NCC(=O)Nc1nc2cc(Oc3ccc(NC(=O)Nc4cc(C(F)(F)F)ccc4F)cc3)ccc2[nH]1 [Example 35, N-(5-(4-((2-Fluoro-5-(trifluoromethyl)phenyl)aminocarbonylamino)phenoxy)-1H-benzimidazol-2-yl)-2-(N-(t-butoxycarbony)amino)acetamide] | < 100 nM | 100 to 1000 nM | < 100 nM | 1000 to 10000 nM | 
O=C(Nc1ccc(Oc2ccc3[nH]c(NC(=O)c4ccc5[nH]cnc5c4)nc3c2)cc1)Nc1cc(C(F)(F)F)ccc1F [Example 89, N-(5-(4-((2-Fluoro-5-(trifluoromethyl)phenyl)aminocarbonylamino)phenoxy)-1H-benzimidazol-2-yl)-5-benzimidazolecarboxamide] | < 100 nM | < 100 nM | < 100 nM | 100 to 1000 nM | 
Nc1nc2ccc(Oc3ccc(NC(=O)Nc4cc(C(F)(F)F)ccc4F)cc3)cc2[nH]1 [Example 22, 2-Amino-5-(4-((2-fluoro-5-(trifluoromethyl)phenyl)aminocarbonylamino)phenoxy)-1H-benzimidazole.] | < 100 nM | 1000 to 10000 nM | < 100 nM | 1000 to 10000 nM | 
